The text below walks through data of US9850225B2, “Compounds useful as immunomodulators” (BRISTOL-MYERS SQUIBB COMPANY, priority 2014, dated 2017).

Chain of PD-1/PD-L1 interaction (PD-1-Ig / PD-L1-His) (Q9NZQ7 other isoform, or with tags, fused parts or gaps): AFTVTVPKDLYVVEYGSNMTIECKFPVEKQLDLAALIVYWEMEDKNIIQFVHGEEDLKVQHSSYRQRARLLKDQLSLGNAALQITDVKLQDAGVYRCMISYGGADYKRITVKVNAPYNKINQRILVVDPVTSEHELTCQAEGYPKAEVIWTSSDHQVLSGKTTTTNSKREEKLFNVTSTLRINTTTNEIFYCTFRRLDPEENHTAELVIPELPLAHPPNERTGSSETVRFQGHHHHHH

In one assay the target is PD-1/PD-L1 interaction (PD-1-Ig / PD-L1-His) (Homo sapiens (Human), UniProt Q9NZQ7). In words: PD-1/PD-L1 Homogenous Time-Resolved Fluorescence (HTRF) binding assay. The note with it: PD-1/PD-L1 HTRF binding assay; numeric value; read-out: Range or IC50. An excerpt:
The ability of the compounds of formula (I) to bind to PD-L1 was investigated using a PD-1/PD-L1 Homogenous Time-Resolved Fluorescence (HTRF) binding assay.
Homogenous Time-Resolved Fluorescence (HTRF) Binding Assay.
The interaction of PD-1 and PD-L1 can be assessed using soluble, purified preparations of the extracellular domains of the two proteins. The PD-1 and PD-L1 protein extracellular domains were expressed as fusion proteins with detection tags, for PD-1, the tag was the Fc portion of Immunoglobulin (PD-1-Ig) and for PD-L1 it was the 6 histidine motif (PD-L1-His). All binding studies were performed in an HTRF assay buffer consisting of dPBS supplemented with 0.1% […] bovine serum albumin and 0.05% (v/v) Tween-20. For the h/PD-L1-His binding assay, inhibitors were pre-incubated with PD-L1-His (10 nM final) for 15 m in 4 μl of assay buffer, followed by addition of PD-1-Ig (20 nM final) in 1 μl of assay buffer and further incubation for 15 m. HTRF detection was achieved using europium crypate-labeled anti-Ig (1 nM final) and allophycocyanin (APC) labeled anti-His (20 nM final). Antibodies were diluted in HTRF detection buffer and 5 μl was dispensed on top of the binding reaction. […] Additional binding assays were established between the human proteins PD-1-Ig/PD-L2-His (20 & 5 nM, respectively) and CD80-His/PD-L1-Ig (100 & 10 nM, respectively). […]
A general note: Time-resolved FRET reads energy transfer from a long-lived donor to a nearby acceptor.
For `Cc1c(COc2cc(OCc3cncc(S(C)(=O)=O)c3)c(CO)cc2Cl)cccc1-c1ccc2c(c1)OCCO2` [Example 3013, (5-chloro-4-{[3-(2,3-dihydro-1,4-benzodioxin-6-yl)-2-methylphenyl]methoxy}-2-[(5-methanesulfonylpyridin-3-yl)methoxy]phenyl)methanol], the IC50 (in general, the concentration needed to halve the response being measured) was 0.08 µM.

Still in this assay, the particulars now being: PD-1/PD-L1 HTRF binding assay; value given as range class; read-out: Range or IC50.
For `Cc1c(COc2cc(OCc3cncc(C#N)c3)c(CN3CCCC[C@H]3C(=O)NS(=O)(=O)C3CC3)cc2Cl)cccc1-c1ccc2c(c1)OCCO2` [Example 1259, (S)-1-(5-chloro-2-((5-cyanopyridin-3-yl)methoxy)-4-((3-(2,3-dihydrobenzo[b][1,4]dioxin-6-yl)-2-methylbenzyl)oxy)benzyl)-N-(cyclopropylsulfonyl)piperidine-2-carboxamide], the IC50 is 0.0006 to 0.01 µM.

As to `Cc1c(COc2cc(OCc3cccc(C#N)c3)c(CN3CCc4nc[nH]c4C3C(=O)O)cc2Cl)cccc1-c1ccc2c(c1)OCCO2` (stereo not drawn) [Example 1226, 5-(5-chloro-2-((3-cyanobenzyl)oxy)-4-((3-(2,3-dihydrobenzo[b][1,4]dioxin-6-yl)-2-methylbenzyl)oxy)benzyl)-4,5,6,7-tetrahydro-3H-imidazo[4,5-c]pyridine-4-carboxylic acid], the IC50 lay in the range of 0.01 to 0.1 µM.

With `CC(=O)NCCNCc1ccc(OCc2cccc(-c3ccccc3)c2C)cc1OCc1ccccc1CO` [Example 1038, N-(2-((2-((2-(hydroxymethyl)benzyl)oxy)-4-((2-methyl-[1,1′-biphenyl]-3-yl)methoxy)benzyl)amino)ethyl)acetamide], the IC50 was in the range of 0.1 to 20 µM.

For the molecule `Cc1c(COc2cc(OCc3cccc(C#N)c3)c(CNCC(O)CN3CCCC3=O)cc2Cl)cccc1-c1ccc2c(c1)OCCO2` (stereo not drawn) [Example 1225], the IC50 was in the range of 0.0006 to 0.01 µM.

Turning to `COc1cc(COc2cc(OCc3cccc(-c4ccc5c(c4)OCCO5)c3C)c(Cl)cc2CN[C@@](C)(CO)C(=O)O)cc(Cl)n1` [Example 3014, (S)-2-((5-chloro-2-((2-chloro-6-methoxypyridin-4-yl)methoxy)-4-((3-(2,3-dihydrobenzo[b][1,4]dioxin-6-yl)-2-methylbenzyl)oxy)benzyl)amino)-3-hydroxy-2-methylpropanoic acid], the IC50 fell in the range of 0.0006 to 0.01 µM.

On to `Cc1c(COc2cc(OCc3cccc(C#N)c3)c(CN3CC[C@H](O)[C@H]3C(=O)O)cc2Cl)cccc1-c1ccc2c(c1)OCCO2` [Example 1219, (2S,3S)-1-(5-chloro-2-((3-cyanobenzyl)oxy)-4-((3-(2,3-dihydrobenzo[b][1,4]dioxin-6-yl)-2-methylbenzyl)oxy)benzyl)-3-hydroxypyrrolidine-2-carboxylic acid], for which the concentration for half-maximal inhibition (IC50) lay in the range of 0.0006 to 0.01 µM.

In the case of `C[C@](CO)(NCc1cc(Cl)c(OCc2cccc(-c3ccc4c(c3)OCCO4)c2C#N)cc1OCc1cccc(C#N)c1)C(=O)O` [Example 1241, (R)-2-((5-chloro-4-((2-cyano-3-(2,3-dihydrobenzo[b][1,4]dioxin-6-yl)benzyl)oxy)-2-((3-cyanobenzyl)oxy)benzyl)amino)-3-hydroxy-2-methylpropanoic acid], the IC50 lay in the range of 0.0006 to 0.01 µM.

Consider `Cc1cc(CN[C@@H](CO)C(=O)O)c(OCc2cncc(C#N)c2)cc1OCc1cccc(-c2ccc3c(c2)OCCO3)c1C` [Example 1284, (S)-2-(2-((5-cyanopyridin-3-yl)methoxy)-4-(3-(2,3-dihydrobenzo[b][1,4]dioxin-6-yl)-2-methylbenzyloxy)-5-methylbenzylamino)-3-hydroxypropanoic acid], for which the IC50 is 0.0006 to 0.01 µM.

Turning to `Cc1c(COc2cc(OCc3cccc(C#N)c3)c(CN3C[C@H](F)C[C@H]3C(=O)O)cc2Cl)cccc1-c1ccc2c(c1)OCCO2` [Example 1215, (2S,4R)-1-(5-chloro-2-((3-cyanobenzyl)oxy)-4-((3-(2,3-dihydrobenzo[b][1,4]dioxin-6-yl)-2-methylbenzyl)oxy)benzyl)-4-fluoropyrrolidine-2-carboxylic acid], the IC50 lay in the range of 0.01 to 0.1 µM.

In the case of `Cc1c(COc2cc(OCc3cncc(C#N)c3)c(CN[C@@H](CCC(=O)O)C(=O)O)cc2Cl)cccc1-c1ccc2c(c1)OCCO2` [Example 2012, (S)-2-((5-chloro-2-((5-cyanopyridin-3-yl)methoxy)-4-((3-(2,3-dihydrobenzo[b][1,4]dioxin-6-yl)-2-methylbenzyl)oxy)benzyl)amino)pentanedioic acid], the IC50 was 0.0006 to 0.01 µM.

As for `Cc1cc(CN2CCCC[C@@H]2C(=O)O)c(OCc2cncc(C#N)c2)cc1OCc1cccc(-c2ccc3c(c2)OCCO3)c1Cl` [Example 1155, (R)-1-(4-(2-chloro-3-(2,3-dihydrobenzo[b][1,4]dioxin-6-yl)benzyloxy)-2-((5-cyanopyridin-3-yl)methoxy)-5-methylbenzyl)piperidine-2-carboxylic acid], the IC50 was in the range of 0.0006 to 0.01 µM.

As to `Cc1c(COc2ccc(CN[C@H](CO)C(=O)O)c(OCc3cccc(C#N)c3)c2)cccc1-c1ccc2c(c1)OCCO2` [Example 1122, (R)-2-(2-(3-cyanobenzyloxy)-4-(3-(2,3-dihydrobenzo[b][1,4]dioxin-6-yl)-2-methylbenzyloxy)benzylamino)-3-hydroxypropanoic acid], the IC50 lay within 0.0006 to 0.01 µM.

As to `Cc1c(COc2cc(OCc3cccc(C#N)c3)c(CN(C)[C@@H](CC(=O)O)C(=O)O)cc2Cl)cccc1-c1ccc2c(c1)OCCO2` [Example 1203, (S)-2-((5-chloro-2-((3-cyanobenzyl)oxy)-4-((3-(2,3-dihydrobenzo[b][1,4]dioxin-6-yl)-2-methylbenzyl)oxy)benzyl)(methyl)amino)succinic acid], the IC50 was in the range of 0.0006 to 0.01 µM.

In the case of `Cc1c(COc2cc(OCc3cncc(C#N)c3)c(CN3C[C@@H](O)CC[C@H]3C(=O)O)cc2Cl)cccc1-c1ccc2c(c1)OCCO2` [Example 2007, (2S,5S)-1-(5-chloro-2-((5-cyanopyridin-3-yl)methoxy)-4-((3-(2,3-dihydrobenzo[b][1,4]dioxin-6-yl)-2-methylbenzyl)oxy)benzyl)-5-hydroxypiperidine-2-carboxylic acid], the IC50 was in the range of 0.0006 to 0.01 µM.

On to `CCCOc1cc(OCc2cccc(-c3ccccc3)c2C)ccc1CNCCNC(C)=O` [Example 1027, N-(2-((4-((2-methyl-[1,1′-biphenyl]-3-yl)methoxy)-2-propoxybenzyl)amino)ethyl)acetamide], for which the IC50 is 0.1 to 20 µM.

As to `COc1cc(COc2cc(OCc3cccc(-c4ccccc4)c3C)ccc2CNCCNC(C)=O)ccc1F` [Example 1093, N-(2-((2-((4-fluoro-3-methoxybenzyl)oxy)-4-((2-methyl-[1,1′-biphenyl]-3-yl)methoxy)benzyl)amino)ethyl)acetamide], the IC50 fell in the range of 0.1 to 20 µM.

For the molecule `Cc1c(COc2cc(OCc3cncc(C#N)c3)c(CN[C@@H](CC(N)=O)C(=O)O)cc2Cl)cccc1-c1ccc2c(c1)OCCO2` [Example 3022, (S)-4-amino-2-((5-chloro-2-((5-cyanopyridin-3-yl)methoxy)-4-((3-(2,3-dihydrobenzo[b][1,4]dioxin-6-yl)-2-methylbenzyl)oxy)benzyl)amino)-4-oxobutanoic acid], the IC50 lay in the range of 0.0006 to 0.01 µM.

As for `Cc1c(COc2cc(OCc3cccc(C#N)c3)c(CNC(Cc3cccc(O)c3)C(=O)O)cc2Cl)cccc1-c1ccc2c(c1)OCCO2` (stereo not drawn) [Example 1159, 2-((5-chloro-2-((3-cyanobenzyl)oxy)-4-((3-(2,3-dihydrobenzo[b][1,4]dioxin-6-yl)-2-methylbenzyl)oxy)benzyl)amino)-3-(3-hydroxyphenyl)propanoic acid], the half-maximal inhibitory concentration (IC50) fell in the range of 0.01 to 0.1 µM.

As for `CC(=O)NCCNCc1ccc(OCc2cccc(-c3ccccc3)c2C)cc1OCc1cccnc1` [Example 1117, N-(2-((4-((2-methyl-[1,1′-biphenyl]-3-yl)methoxy)-2-(pyridin-3-ylmethoxy)benzyl)amino)ethyl)acetamide], the concentration for half-maximal inhibition (IC50) fell in the range of 0.01 to 0.1 µM.

Consider `Cc1c(COc2cc(OCc3cccc(C#N)c3)c(CN[C@@H](CC#N)C(=O)O)cc2Cl)cccc1-c1ccc2c(c1)OCCO2` [Example 1180, (S)-2-((5-chloro-2-((3-cyanobenzyl)oxy)-4-((3-(2,3-dihydrobenzo[b][1,4]dioxin-6-yl)-2-methylbenzyl)oxy)benzyl)amino)-3-cyanopropanoic acid], for which the IC50 is 0.01 to 0.1 µM.

For the molecule `CCOC(=O)c1cncc(COc2cc(OCc3cccc(-c4ccc5c(c4)OCCO5)c3C)c(Cl)cc2CN[C@@](C)(CO)C(=O)O)c1` [Example 2000, (S)-2-((5-chloro-4-((3-(2,3-dihydrobenzo[b][1,4]dioxin-6-yl)-2-methylbenzyl)oxy)-2-((5-(ethoxycarbonyl)pyridin-3-yl)methoxy)benzyl)amino)-3-hydroxy-2-methylpropanoic acid], the IC50 lay within 0.1 to 20 µM.

`Cc1c(COc2cc(OCc3cccc(C#N)c3)c(CN(C)C(C)C(=O)O)cc2Cl)cccc1-c1ccc2c(c1)OCCO2` (stereo not drawn) [Example 1188, 2-((5-chloro-2-((3-cyanobenzyl)oxy)-4-((3-(2,3-dihydrobenzo[b][1,4]dioxin-6-yl)-2-methylbenzyl)oxy)benzyl)(methyl)amino)propanoic acid]: the IC50 lay in the range of 0.0006 to 0.01 µM.

As to `Cc1cc(CN[C@@](C)(CO)C(=O)O)c(OCCCCC#N)cc1OCc1cccc(-c2ccc3c(c2)OCCO3)c1C` [Example 1297, (S)-2-(2-(4-cyanobutoxy)-4-(3-(2,3-dihydrobenzo[b][1,4]dioxin-6-yl)-2-methylbenzyloxy)-5-methylbenzylamino)-3-hydroxy-2-methylpropanoic acid], the IC50 was in the range of 0.0006 to 0.01 µM.
